Measured values reported in ChEMBL document CHEMBL1201862, “PubChem BioAssay data set” (2004).
Active and inactive are the calls of the source.

Biological target: T1, Tyrosine-protein kinase receptor TYRO3 (Homo sapiens, UniProt Q06418);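 also: TYRO3 value obtained as one member of a kinome-wide profiling panel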
T1 sequence (Q06418 whole entry): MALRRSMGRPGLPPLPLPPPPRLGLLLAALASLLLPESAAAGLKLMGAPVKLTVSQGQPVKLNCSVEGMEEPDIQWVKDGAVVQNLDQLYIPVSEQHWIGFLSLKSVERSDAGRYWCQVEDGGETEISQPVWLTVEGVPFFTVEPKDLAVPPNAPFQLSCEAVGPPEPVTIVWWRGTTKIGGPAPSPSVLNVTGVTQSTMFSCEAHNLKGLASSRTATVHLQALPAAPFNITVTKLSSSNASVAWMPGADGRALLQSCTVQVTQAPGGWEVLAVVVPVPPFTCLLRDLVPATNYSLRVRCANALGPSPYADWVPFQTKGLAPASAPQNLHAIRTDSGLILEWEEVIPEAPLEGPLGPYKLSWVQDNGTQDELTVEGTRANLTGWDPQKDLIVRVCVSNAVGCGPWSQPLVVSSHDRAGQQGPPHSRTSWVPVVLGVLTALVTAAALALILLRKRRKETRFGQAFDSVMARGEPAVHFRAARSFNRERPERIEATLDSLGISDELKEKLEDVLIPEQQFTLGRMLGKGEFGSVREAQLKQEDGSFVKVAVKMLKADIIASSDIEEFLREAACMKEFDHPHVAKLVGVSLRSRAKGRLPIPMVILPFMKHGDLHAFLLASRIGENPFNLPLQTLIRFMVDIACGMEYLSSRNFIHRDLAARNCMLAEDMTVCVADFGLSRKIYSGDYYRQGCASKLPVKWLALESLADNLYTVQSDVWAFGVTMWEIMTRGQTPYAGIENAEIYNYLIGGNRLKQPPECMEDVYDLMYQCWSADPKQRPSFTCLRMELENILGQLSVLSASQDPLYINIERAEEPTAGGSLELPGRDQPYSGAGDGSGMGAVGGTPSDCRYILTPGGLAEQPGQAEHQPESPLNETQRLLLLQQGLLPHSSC
Type: functional

SMILES	Ki
O=C1Nc2cc(-c3ccc(O)cc3)ccc2C1=Cc1ccc[nH]1	2 µM (active)
NC(COc1cncc(-c2ccc3c(c2)C(=Cc2ccc[nH]2)C(=O)N3)c1)Cc1ccccc1 (stereo unspecified)	0.0251 µM (active)
O=C1Cc2cc(-c3ccccc3)cnc2N1	20 µM (active)

Biological target: T2, Sentrin-specific protease 8 (Homo sapiens, UniProt Q96LD8);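 also: luminescence read-out of SENP8 inhibition, dose-response confirmation following an ultra-high-throughput screen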
T2 sequence (Q96LD8 whole entry): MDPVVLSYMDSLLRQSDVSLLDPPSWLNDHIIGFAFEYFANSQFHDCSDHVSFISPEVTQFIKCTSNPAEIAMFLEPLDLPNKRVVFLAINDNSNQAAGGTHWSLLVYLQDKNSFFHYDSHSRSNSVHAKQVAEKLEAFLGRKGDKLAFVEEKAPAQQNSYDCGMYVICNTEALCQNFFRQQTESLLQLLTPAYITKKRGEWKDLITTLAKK
Type: functional

SMILES	IC50
O=C(NC1=C(Nc2ccc(F)cc2)C(=O)c2ccccc2C1=O)c1ccc(Cl)cc1	10.2 µM (active)
Oc1nc(Nc2ccc(F)cc2)cc2ccccc12	6.03 µM (active)
CN(C)c1cc(N/N=C\c2ccccc2)nc(N(C)C)n1	18.8 µM (active)

Biological target: Tyrosine-protein kinase ABL1 (Homo sapiens, UniProt P00519)
Type: functional

Tyrosine-protein kinase ABL1, sequence (P00519 whole entry): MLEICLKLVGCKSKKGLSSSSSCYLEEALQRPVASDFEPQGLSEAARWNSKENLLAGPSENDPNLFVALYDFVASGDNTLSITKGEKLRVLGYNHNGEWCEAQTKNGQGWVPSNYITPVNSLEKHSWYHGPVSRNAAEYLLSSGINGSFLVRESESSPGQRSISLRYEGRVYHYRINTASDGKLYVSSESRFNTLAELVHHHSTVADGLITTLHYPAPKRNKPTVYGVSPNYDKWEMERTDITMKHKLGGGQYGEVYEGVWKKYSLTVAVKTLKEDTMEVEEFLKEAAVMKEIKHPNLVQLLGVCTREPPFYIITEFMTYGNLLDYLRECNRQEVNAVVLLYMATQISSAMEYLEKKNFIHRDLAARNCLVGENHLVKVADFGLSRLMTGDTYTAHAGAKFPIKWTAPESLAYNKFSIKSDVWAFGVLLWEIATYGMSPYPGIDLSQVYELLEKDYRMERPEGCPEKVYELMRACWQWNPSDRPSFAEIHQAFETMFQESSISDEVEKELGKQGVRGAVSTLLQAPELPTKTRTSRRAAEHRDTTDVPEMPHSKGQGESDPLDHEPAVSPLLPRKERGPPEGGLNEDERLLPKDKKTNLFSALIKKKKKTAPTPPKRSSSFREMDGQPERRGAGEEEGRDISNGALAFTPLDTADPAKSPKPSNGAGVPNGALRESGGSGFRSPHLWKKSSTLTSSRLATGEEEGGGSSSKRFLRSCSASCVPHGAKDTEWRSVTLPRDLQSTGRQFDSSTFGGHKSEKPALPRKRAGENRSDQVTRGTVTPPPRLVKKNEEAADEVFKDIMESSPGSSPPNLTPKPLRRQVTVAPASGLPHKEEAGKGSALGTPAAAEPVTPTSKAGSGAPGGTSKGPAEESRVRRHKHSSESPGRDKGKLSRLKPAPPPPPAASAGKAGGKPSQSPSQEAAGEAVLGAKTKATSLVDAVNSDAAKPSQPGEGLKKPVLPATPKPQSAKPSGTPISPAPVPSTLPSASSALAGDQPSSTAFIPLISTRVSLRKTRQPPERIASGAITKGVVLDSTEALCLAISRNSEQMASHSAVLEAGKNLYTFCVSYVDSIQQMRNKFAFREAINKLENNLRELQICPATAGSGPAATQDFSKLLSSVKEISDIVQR

SMILES	Ki
O=C1Nc2cc(-c3ccc(O)cc3)ccc2C1=Cc1ccc[nH]1	0.0501 µM (active)
NC(COc1cncc(-c2ccc3c(c2)C(=Cc2ccc[nH]2)C(=O)N3)c1)Cc1ccccc1 (stereo unspecified)	0.0631 µM (active)
O=C1Cc2cc(-c3ccccc3)cnc2N1	79.4 µM (active)

Biological target: T3, Mitogen-activated protein kinase kinase kinase kinase 2 (Homo sapiens, UniProt Q12851);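 also: measured as one member of a kinome-wide kinase panel, with MAP4K2 as the panel entry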
T3 sequence (Q12851 whole entry): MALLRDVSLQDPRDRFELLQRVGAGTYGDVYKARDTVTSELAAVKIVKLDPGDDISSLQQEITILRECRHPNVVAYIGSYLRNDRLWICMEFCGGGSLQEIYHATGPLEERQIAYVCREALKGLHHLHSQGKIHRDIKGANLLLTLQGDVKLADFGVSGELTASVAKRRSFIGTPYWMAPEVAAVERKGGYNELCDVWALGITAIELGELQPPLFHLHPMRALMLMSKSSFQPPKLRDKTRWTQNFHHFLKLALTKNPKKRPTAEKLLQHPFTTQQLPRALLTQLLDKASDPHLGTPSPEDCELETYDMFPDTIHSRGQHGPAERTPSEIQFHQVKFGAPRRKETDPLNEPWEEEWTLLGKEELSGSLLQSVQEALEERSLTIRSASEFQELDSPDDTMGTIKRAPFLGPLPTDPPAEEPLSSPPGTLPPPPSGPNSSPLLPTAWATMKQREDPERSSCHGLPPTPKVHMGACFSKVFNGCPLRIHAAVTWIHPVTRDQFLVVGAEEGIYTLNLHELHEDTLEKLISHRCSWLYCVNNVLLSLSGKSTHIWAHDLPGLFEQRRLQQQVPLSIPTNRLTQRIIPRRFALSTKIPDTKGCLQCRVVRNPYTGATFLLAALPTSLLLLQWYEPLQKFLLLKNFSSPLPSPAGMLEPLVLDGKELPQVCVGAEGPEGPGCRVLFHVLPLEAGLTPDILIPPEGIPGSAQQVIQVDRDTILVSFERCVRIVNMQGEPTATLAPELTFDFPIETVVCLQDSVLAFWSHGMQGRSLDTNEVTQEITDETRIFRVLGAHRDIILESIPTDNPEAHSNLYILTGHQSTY
Type: functional

SMILES	Ki
O=C1Nc2cc(-c3ccc(O)cc3)ccc2C1=Cc1ccc[nH]1	0.0316 µM (active)
NC(COc1cncc(-c2ccc3c(c2)C(=Cc2ccc[nH]2)C(=O)N3)c1)Cc1ccccc1 (stereo unspecified)	0.0158 µM (active)
O=C1Cc2cc(-c3ccccc3)cnc2N1	31.6 µM (active)

Biological target: Fibroblast growth factor receptor 1 (Homo sapiens, UniProt P11362)
Type: functional

Fibroblast growth factor receptor 1, sequence (P11362 whole entry): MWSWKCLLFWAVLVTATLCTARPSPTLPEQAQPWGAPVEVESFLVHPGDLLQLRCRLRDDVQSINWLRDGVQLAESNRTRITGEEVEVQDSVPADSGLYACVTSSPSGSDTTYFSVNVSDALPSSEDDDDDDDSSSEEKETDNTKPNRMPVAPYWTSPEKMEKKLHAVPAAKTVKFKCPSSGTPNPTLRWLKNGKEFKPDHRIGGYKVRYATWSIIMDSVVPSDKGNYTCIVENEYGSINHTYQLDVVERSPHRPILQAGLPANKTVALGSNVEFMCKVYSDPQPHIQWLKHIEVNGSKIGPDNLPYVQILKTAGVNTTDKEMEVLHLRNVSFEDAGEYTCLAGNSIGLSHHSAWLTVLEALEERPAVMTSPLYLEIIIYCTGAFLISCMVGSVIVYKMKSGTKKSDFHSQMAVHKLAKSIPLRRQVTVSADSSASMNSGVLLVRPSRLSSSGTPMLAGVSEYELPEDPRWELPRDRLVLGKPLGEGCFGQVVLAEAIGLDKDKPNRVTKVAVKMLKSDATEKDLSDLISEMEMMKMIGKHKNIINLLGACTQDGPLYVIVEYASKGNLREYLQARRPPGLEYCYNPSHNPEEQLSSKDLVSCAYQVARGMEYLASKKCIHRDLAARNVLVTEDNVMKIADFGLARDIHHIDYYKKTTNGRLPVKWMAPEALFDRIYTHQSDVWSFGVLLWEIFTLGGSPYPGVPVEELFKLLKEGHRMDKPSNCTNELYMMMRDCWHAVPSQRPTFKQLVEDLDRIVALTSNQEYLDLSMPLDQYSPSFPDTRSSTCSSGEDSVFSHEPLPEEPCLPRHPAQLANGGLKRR

SMILES	Ki
O=C1Nc2cc(-c3ccc(O)cc3)ccc2C1=Cc1ccc[nH]1	1.26 µM (active)
NC(COc1cncc(-c2ccc3c(c2)C(=Cc2ccc[nH]2)C(=O)N3)c1)Cc1ccccc1 (stereo unspecified)	0.126 µM (active)
O=C1Cc2cc(-c3ccccc3)cnc2N1	50.1 µM (active)

Biological target: BDNF/NT-3 growth factors receptor (Homo sapiens, UniProt Q16620);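 also: NTRK2 measured as one member of a broad kinome-wide kinase profiling panel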
Type: functional

BDNF/NT-3 growth factors receptor, sequence (Q16620 whole entry): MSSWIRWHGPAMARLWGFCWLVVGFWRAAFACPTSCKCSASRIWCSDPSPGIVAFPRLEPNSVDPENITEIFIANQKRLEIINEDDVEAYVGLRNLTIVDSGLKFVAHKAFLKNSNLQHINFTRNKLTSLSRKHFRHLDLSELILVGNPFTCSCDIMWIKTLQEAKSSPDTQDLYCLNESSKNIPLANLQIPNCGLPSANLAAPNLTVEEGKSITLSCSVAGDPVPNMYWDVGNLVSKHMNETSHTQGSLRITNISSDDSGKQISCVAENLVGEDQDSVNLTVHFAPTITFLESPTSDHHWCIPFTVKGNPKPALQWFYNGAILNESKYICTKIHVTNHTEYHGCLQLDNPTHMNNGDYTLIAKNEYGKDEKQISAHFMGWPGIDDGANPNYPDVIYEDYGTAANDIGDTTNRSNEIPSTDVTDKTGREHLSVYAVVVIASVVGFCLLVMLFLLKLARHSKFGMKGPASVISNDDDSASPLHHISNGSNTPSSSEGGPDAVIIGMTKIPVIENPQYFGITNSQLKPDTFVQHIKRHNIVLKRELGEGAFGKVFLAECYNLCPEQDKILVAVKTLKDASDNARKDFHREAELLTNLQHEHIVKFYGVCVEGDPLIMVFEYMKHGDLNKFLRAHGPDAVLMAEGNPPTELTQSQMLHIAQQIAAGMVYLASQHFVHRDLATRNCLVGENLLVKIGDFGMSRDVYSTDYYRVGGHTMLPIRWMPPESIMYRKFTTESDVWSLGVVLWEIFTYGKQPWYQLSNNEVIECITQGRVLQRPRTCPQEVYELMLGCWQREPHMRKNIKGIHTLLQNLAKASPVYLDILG

SMILES	Ki
O=C1Nc2cc(-c3ccc(O)cc3)ccc2C1=Cc1ccc[nH]1	0.631 µM (active)
NC(COc1cncc(-c2ccc3c(c2)C(=Cc2ccc[nH]2)C(=O)N3)c1)Cc1ccccc1 (stereo unspecified)	0.00501 µM (active)
O=C1Cc2cc(-c3ccccc3)cnc2N1	100 µM (active)

Biological target: T4, Rac GTPase-activating protein 1 (Homo sapiens, UniProt Q9H0H5)
T4 sequence (Q9H0H5 whole entry): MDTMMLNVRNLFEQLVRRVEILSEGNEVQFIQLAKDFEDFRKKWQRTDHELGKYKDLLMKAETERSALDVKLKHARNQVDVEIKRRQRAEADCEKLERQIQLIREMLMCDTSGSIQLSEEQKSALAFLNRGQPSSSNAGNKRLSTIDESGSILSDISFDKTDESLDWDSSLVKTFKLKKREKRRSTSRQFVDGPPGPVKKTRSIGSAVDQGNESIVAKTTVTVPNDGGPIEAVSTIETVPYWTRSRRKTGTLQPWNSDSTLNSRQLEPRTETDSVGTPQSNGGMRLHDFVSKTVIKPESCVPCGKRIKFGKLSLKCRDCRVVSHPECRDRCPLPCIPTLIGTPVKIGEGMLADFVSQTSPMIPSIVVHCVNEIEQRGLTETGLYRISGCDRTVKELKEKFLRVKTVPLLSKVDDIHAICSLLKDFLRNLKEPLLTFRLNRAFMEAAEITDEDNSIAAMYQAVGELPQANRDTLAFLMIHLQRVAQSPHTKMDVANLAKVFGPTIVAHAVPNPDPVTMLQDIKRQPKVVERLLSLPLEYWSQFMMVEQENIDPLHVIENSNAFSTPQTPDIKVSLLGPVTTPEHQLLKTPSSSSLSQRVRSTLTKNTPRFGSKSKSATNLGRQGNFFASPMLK
Assay: MgcRacGAP GTPase-activating activity inhibitors, confirmation, biochemical, ADP Hunter fluorescence, primary and confirmatory (AID 624330)
Type: functional

SMILES	IC50
CCN(CC)CCOc1ccc2c(c1)C(=NNC(=O)c1ccccn1)c1cc(OCCN(CC)CC)ccc1-2	31.3 µM (active)
O=C(O)c1ccc2c(c1)[C@@H]1C=CC[C@@H]1[C@H](c1ccccn1)N2	360 µM (active)
COc1cc2cc(NC(C)=O)cc(NCc3ccccc3)c2cc1OC	49.6 µM (active)
